Measurements taken from patent US8877244B2, “Stabilized pesticidal granules” (priority 2006, dated 2014).

Key:
[1] = test system: large crabgrass (Digitaria sanguinalis); assay: Biology comparison: control of large crabgrass by stored granule samples; format: in vivo; details: after storage for 1 year at room temperature or 19 days at 50° C.
Excerpt: Callisto® (a commercially available liquid formulation containing 4 lbs/gal of the active ingredient 2-(2′-nitro-4′-methylsulphonylbenzoyl)-1,3-cyclohexanedione acid) (Syngenta Crop Protection, Inc.) is sprayed onto fertilizer granules (Scotts® Turf Builder® Lawn Fertilizer 29-3-4 (with added nutrients)) (The Scotts Co.) in an amount sufficient to achieve an average a.i. loading of 0.082% by weight. Sample 2 is a control sample that is freshly prepared and has not been stored. Sample 3 is stored for 1 year at ambient room temperature. Sample 4 is stored under accelerated conditions (19 days at 50° C.).
A spray solution of Example 1 is sprayed onto fertilizer granules (Scotts® Turf Builder® Lawn Fertilizer 29-3-4 (with added nutrients)) (The Scotts Co.) in an amount sufficient to achieve an average a.i. loading of 0.082% by weight. Sample 5 is stored for 1 year at ambient room temperature. Sample 6 is stored under accelerated conditions (19 days at 50° C.).
All samples are applied to large crabgrass (Digitaria sanguinalis) at 224 g ai/ha, and control assessed 10 days after treatment. Sample 1 is an untreated control.

[2] = Stability comparison: accelerated temperature storage of coated granules, a.i. extracted and assayed by HPLC; format: physicochemical; details: storage at 38° C. and 50° C.
Protocol: The materials prepared in examples 1-7 are tested for stability as follows: • 1) After obtaining the coated granules according to the procedures given above, material is divided up into samples by using a standard “Riffler”, which is used to generate statistically representative samples from a large batch. • 2) The individual “riffled” samples are put on accelerated temperature storage (in ovens) at 38° C. and 50° C. • 3) Samples are pulled from each temperature at regular intervals, and assayed for 2-(2′-nitro-4′-methylsulphonylbenzoyl)-1,3-cyclohexanedione acid concentration (weight %). Commonly 2-3 samples are pulled from each temperature, each week. • 4) The pulled samples are analyzed for stability by extraction of the a.i. material from the granules and assayed by HPLC.

2-(2′-nitro-4′-methylsulphonylbenzoyl)-1,3-cyclohexanedione copper chelate
control of large crabgrass compared with the unchelated (acid) form on fertiliser granules [1]: improved control of large crabgrass
stability on granules compared with the unchelated (acid) form [2]: improved stability
